# Source: patent US9394303B2, “Small molecule inhibitors of MCL-1 and uses thereof” (priority 2014, dated 2016)
# Entries after “also recorded” stand apart in the source; their conditions may differ. Where two headings read alike, the source gives them in different places.
# Legend:
# [1] = system: Eμ-myc lymphoma cells overexpressing Bcl-2; assay: Eμ-myc lymphoma cell killing; type: cell-based, mice; conditions: FIG. 9
# Source text: (§1) The specificity and selectivity of this class Mcl-1 inhibitors was further confirmed by using cell lines developed by retroviral transduction of lymphoma cells isolated from Eμ-myc transgenic mice which survival depends on the expression of individual prosurvival protein (see, e.g., Whitecross K F, Alsop A E, Cluse L A, Wiegmans A, Banks K M, et al. 2009. […].
# [2] = system: Eμ-myc lymphoma cells overexpressing Bcl-xL; assay: Eμ-myc lymphoma cell killing; type: cell-based, mice; conditions: FIG. 9
# Source text: as §1
# [3] = target: T1, Mcl-1 (Homo sapiens (Human), UniProt Q07820); conditions: cited from earlier work
# [4] = target: T1, Mcl-1; conditions: for did not bind to Mcl-1 up to: highest concentration tested
# [5] = target: Bcl-2 (Homo sapiens, UniProt P10415); assay: Fluorescence polarization-based competitive binding assay (FAM-BID tracer)
# Bcl-2, sequence (P10415 whole entry, looked up): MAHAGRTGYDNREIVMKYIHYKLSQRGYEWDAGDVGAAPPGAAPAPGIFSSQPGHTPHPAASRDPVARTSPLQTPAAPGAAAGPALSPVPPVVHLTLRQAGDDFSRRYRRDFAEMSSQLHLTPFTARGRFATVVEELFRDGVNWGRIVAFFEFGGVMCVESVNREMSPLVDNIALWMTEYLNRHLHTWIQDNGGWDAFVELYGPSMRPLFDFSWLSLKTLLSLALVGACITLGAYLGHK
# [6] = target: Bcl-xL (Homo sapiens (Human), UniProt Q07817, DEL45-85); assay: as above; conditions: for Ki: Table 2, tested up to 20 μM, read-out: Bcl-XL Ki ± SD
# Bcl-xL, sequence (Q07817 with tags, fused parts or gaps DEL45-85): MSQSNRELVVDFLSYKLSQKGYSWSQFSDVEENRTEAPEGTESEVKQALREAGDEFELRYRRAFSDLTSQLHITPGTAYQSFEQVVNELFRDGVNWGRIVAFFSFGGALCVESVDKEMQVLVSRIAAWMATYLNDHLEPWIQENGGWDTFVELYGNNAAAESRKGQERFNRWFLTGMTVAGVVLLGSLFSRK
# [7] = system: Eμ-myc lymphomas overexpressing Mcl-1; assay: Eμ-myc lymphoma cell killing; type: cell-based, mice; conditions: FIG. 9
# Source text: as §1
# [8] = read-out: Bcl-2 Ki ± SD; Table 2; tested up to 20 μM
# [9] = Table 2; tested up to 20 μM; read-out: Bcl-2 Ki ± SD
smiles,measurement,setting,value
"CC1(C)CCC(c2ccc(Cl)cc2)=C(CN2CCN(c3ccc(C(=O)NS(=O)(=O)c4ccc(N[C@H](CCN5CCOCC5)CSc5ccccc5)c(S(=O)(=O)C(F)(F)F)c4)cc3)CC2)C1 [ABT-263, reference compound]",effect on Eμ-myc lymphoma cells dependent on Bcl-2,[1],kills
same,effect on Eμ-myc lymphoma cells dependent on Bcl-xL,[2],kills
CN(C)CC[C@H](CSc1ccccc1)Nc1ccc(S(=O)(=O)NC(=O)c2ccc(N3CCN(Cc4ccccc4-c4ccc(Cl)cc4)CC3)cc2)cc1[N+](=O)[O-] [ABT-737],binding to Mcl-1,[3],fails to bind
"Cc1nn(C)c2nc(-c3ccco3)cc(C(=O)O)c12 [Compound 3, 6-(Furan-2-yl)-1,3-dimethyl-1H-pyrazolo[3,4-b]pyridine-4-carboxylic acid]",did not bind to Mcl-1 up to,[4],> 200 µM
"Cc1cc(C(=O)O)c2c(C)nn(C)c2n1 [Compound 5, 1,3,6-Trimethyl-1H-pyrazolo[3,4-b]pyridine-4-carboxylic acid]",did not bind to Mcl-1 up to,[4],> 200 µM
"Cc1nn(Cc2ccccc2)c2nc(-c3ccco3)cc(C(=O)O)c12 [Compound 6, 1-Benzyl-6-(furan-2-yl)-3-methyl-1H-pyrazolo[3,4-b]pyridine-4-carboxylic acid]",change in potency compared to 2,[4]; vs compound 2,slight increase in potency
"Cc1nn(Cc2ccc(Oc3ccccc3)cc2)c2nc(-c3ccco3)cc(C(=O)O)c12 [Compound 8, 6-(Furan-2-yl)-3-methyl-1-(4-phenoxybenzyl)-1H-pyrazolo[3,4-b]pyridine-4-carboxylic acid]",Ki,[5]; [8],> 4 µM
"Cc1nn(Cc2ccc(Oc3ccccc3)cc2)c2nc(/C=C/c3ccccc3)cc(C(=O)O)c12 [Compound 16, (E)-3-methyl-1-(4-phenoxybenzyl)-6-styryl-1H-pyrazolo[3,4-b]pyridine-4-carboxylic acid]",Ki,[5]; [8],3.16 ± 1.03 µM
same,Ki,[6],3.55 ± 0.3 µM
Cc1cc(Oc2ccc(Cn3nc(C)c4c(C(=O)O)cc(-c5ccco5)nc43)cc2)cc(C)c1Cl [Compound 57],Ki,[5]; [9],1.95 ± 0.2 µM
same,effect on Eμ-myc lymphoma cells dependent on Mcl-1,[7],led to sensitization; also recorded: selective killing
same,effect on Eμ-myc lymphoma cells dependent on Bcl-2,[1],did not show effect; also recorded: not affected
same,effect on Eμ-myc lymphoma cells dependent on Bcl-xL,[2],did not show effect; also recorded: not affected
same,Ki,[6],> 5 µM
same,no binding to Bcl-xL up to,[6]; highest concentration tested,> 20 µM
Cc1nn(Cc2ccc(Oc3cccc4ccccc34)cc2)c2nc(-c3ccco3)cc(C(=O)O)c12 [Compound 58],Ki,[5]; [9],> 4 µM
same,Ki,[6],> 5 µM
